Measurements from PMC4901301 (Scientific Reports, 2016).
Values after ≈ are worked out from the molar mass of the structure shown. Where two headings read alike, the source gives them in different places.

What was measured:
Type in all cases: cell-based, Mycobacterium tuberculosis
Mtb MT 182 = assay: Resazurin (Alamar Blue) drug susceptibility testing, MT 182
Mtb TC 12561 = assay: Resazurin (Alamar Blue) drug susceptibility testing, TC 12561
Mtb TH 12768 = assay: Resazurin (Alamar Blue) drug susceptibility testing, TH 12768
[1] = tested on: Mtb H37Rv thyX Tet-OFF conditional knockdown mutant

`NNC(=O)c1ccncc1` [INH, isoniazid, reference compound] was tested, and the MIC (Mtb MT 182; Mycobacterium tuberculosis, MT182, read-out: MIC) was less than 0.91 µM, the MIC (Mtb TC 12561; Mycobacterium tuberculosis, TC12561, read-out: MIC) was 14.6 µM (≈ 2 µg/mL) and the MIC (Mtb TH 12768; Mycobacterium tuberculosis, TH12768, read-out: MIC) was 3.64 µM (≈ 0.499 µg/mL).
Compound `O=C1C(O)=C(Cc2cc(F)cc(F)c2)C(=O)c2ccccc21` [Compound 010B] has an MIC (Mtb MT 182; read-out: MIC) of 104.1 µM (≈ 31.3 µg/mL), an MIC (Mtb TC 12561; read-out: MIC) of 104.1 µM (≈ 31.3 µg/mL) and an MIC (Mtb TH 12768; read-out: MIC) of 52.1 µM (≈ 15.6 µg/mL).
For `COC1=C(OC)C(=O)C(CCCCCCCCCCO)=C(C)C1=O` [Idebenone, idebenone, reference compound], the Growth inhibition [1] was ~ 90%.
`CCCCC1=C(O)C(=O)c2ccccc2C1=O` [Compound 010I] was tested, and the MIC (Mtb MT 182; read-out: MIC) was 135.7 µM (≈ 31.2 µg/mL), the MIC (Mtb TC 12561; read-out: MIC) was 271.4 µM (≈ 62.5 µg/mL) and the MIC (Mtb TH 12768; read-out: MIC) was 135.7 µM (≈ 31.2 µg/mL).
With `O=C1C(O)=C(Cc2ccc(C(F)(F)F)cc2)C(=O)c2ccccc21` [Compound 007F] the MIC (Mtb MT 182; read-out: MIC) was 94.1 µM (≈ 31.3 µg/mL), the MIC (Mtb TC 12561; read-out: MIC) was 47.0 µM (≈ 15.6 µg/mL) and the MIC (Mtb TH 12768; read-out: MIC) was 94.1 µM (≈ 31.3 µg/mL).
`O=C1C(O)=C(Cc2ccco2)C(=O)c2ccccc21` [Compound 010C] showed an MIC (Mtb MT 182; read-out: MIC) of 176.5 µM (≈ 44.9 µg/mL), an MIC (Mtb TC 12561; read-out: MIC) of 176.5 µM (≈ 44.9 µg/mL) and an MIC (Mtb TH 12768; read-out: MIC) of 176.5 µM (≈ 44.9 µg/mL).
For `CO[C@H]1/C=C/O[C@@]2(C)Oc3c(C)c(O)c4c(O)c(c(/C=N/N5CCN(C)CC5)c(O)c4c3C2=O)NC(=O)/C(C)=C\C=C\[C@H](C)[C@H](O)[C@@H](C)[C@@H](O)[C@@H](C)[C@H](OC(C)=O)[C@@H]1C` [RMP, rifampicin, reference compound], the MIC (Mtb MT 182; Mycobacterium tuberculosis, MT182) was 1.21 µM (≈ 0.996 µg/mL), the MIC (Mtb TC 12561; Mycobacterium tuberculosis, TC12561) was 4.86 µM (≈ 4 µg/mL) and the MIC (Mtb TH 12768; Mycobacterium tuberculosis, TH12768) was less than 0.3 µM.
`COc1ccc(CC2=C(O)C(=O)c3ccccc3C2=O)cc1OC` [Compound 010K] was tested, and the MIC (Mtb MT 182; read-out: MIC) was 385.4 µM (≈ 125 µg/mL), the MIC (Mtb TC 12561; read-out: MIC) was 192.7 µM (≈ 62.5 µg/mL) and the MIC (Mtb TH 12768; read-out: MIC) was 192.7 µM (≈ 62.5 µg/mL).
Work on `O=C1C(O)=C(Cc2cccs2)C(=O)c2ccccc21` [Compound 010D] yielded an MIC (Mtb MT 182; read-out: MIC) of 462.4 µM (≈ 125 µg/mL), an MIC (Mtb TC 12561; read-out: MIC) of 57.8 µM (≈ 15.6 µg/mL) and an MIC (Mtb TH 12768; read-out: MIC) of 231.2 µM (≈ 62.5 µg/mL).
For `O=C1C(O)=C(Cc2ccc(F)c(C(F)(F)F)c2)C(=O)c2ccccc21` [Compound 010E], the MIC (Mtb MT 182; read-out: MIC) was 22.3 µM (≈ 7.81 µg/mL), the MIC (Mtb TC 12561; read-out: MIC) was 22.3 µM (≈ 7.81 µg/mL) and the MIC (Mtb TH 12768; read-out: MIC) was 22.3 µM (≈ 7.81 µg/mL).
Compound `O=C1C(O)=C(Cc2ccc(OC(F)(F)F)cc2)C(=O)c2ccccc21` [Compound 007C] has an MIC (Mtb MT 182; read-out: MIC) of 44.9 µM (≈ 15.6 µg/mL), an MIC (Mtb TC 12561; read-out: MIC) of 44.9 µM (≈ 15.6 µg/mL) and an MIC (Mtb TH 12768; read-out: MIC) of 44.9 µM (≈ 15.6 µg/mL).
With `COc1cc(CC2=C(O)C(=O)c3ccccc3C2=O)ccc1O` [Compound 010H] the MIC (Mtb MT 182; read-out: MIC) was 100.7 µM (≈ 31.2 µg/mL), the MIC (Mtb TC 12561; read-out: MIC) was 201.4 µM (≈ 62.5 µg/mL) and the MIC (Mtb TH 12768; read-out: MIC) was 201.4 µM (≈ 62.5 µg/mL).
`CC(C)Oc1ccc(CC2=C(O)C(=O)c3ccccc3C2=O)cc1` [Compound 007D] was tested, and the MIC (Mtb MT 182; read-out: MIC) was 96.9 µM (≈ 31.2 µg/mL), the MIC (Mtb TC 12561; read-out: MIC) was 96.9 µM (≈ 31.2 µg/mL) and the MIC (Mtb TH 12768; read-out: MIC) was 96.9 µM (≈ 31.2 µg/mL).
`O=C1C(O)=C(Cc2ccc(-c3ccc(Cl)cc3)cc2)C(=O)c2ccccc21` [Compound 007B] showed an MIC (Mtb MT 182; read-out: MIC) of 83.4 µM (≈ 31.3 µg/mL), an MIC (Mtb TC 12561; read-out: MIC) of 83.4 µM (≈ 31.3 µg/mL) and an MIC (Mtb TH 12768; read-out: MIC) of 41.7 µM (≈ 15.6 µg/mL).
For `O=C1C(O)=C(Cc2ccc(Oc3ccccc3)cc2)C(=O)c2ccccc21` [Compound 007G], the MIC (Mtb MT 182; read-out: MIC) was 87.8 µM (≈ 31.3 µg/mL), the MIC (Mtb TC 12561; read-out: MIC) was 87.8 µM (≈ 31.3 µg/mL) and the MIC (Mtb TH 12768; read-out: MIC) was 175.5 µM (≈ 62.5 µg/mL).
`O=C1C(O)=C(Cc2ccc(Cl)cc2)C(=O)c2ccccc21` [Compound 010A] gave an MIC (Mtb MT 182; read-out: MIC) of 104.6 µM (≈ 31.2 µg/mL), an MIC (Mtb TC 12561; read-out: MIC) of 52.3 µM (≈ 15.6 µg/mL) and an MIC (Mtb TH 12768; read-out: MIC) of 104.6 µM (≈ 31.2 µg/mL).
For `CCOC(=O)C1=C(c2ccc(C)cc2)C(=O)c2ccccc2C1=O` [Compound B6, ethyl 3-(4-methylphenyl)-1,4-dioxonaphtalene-2-carboxylate], the “MIC90 shift (increase in potency) upon ThyX depletion” value [1] was “no shift”.
For `O=C1C(O)=C(Cc2ccc(F)c(Cl)c2)C(=O)c2ccccc21` [Compound 010F], the MIC (Mtb MT 182; read-out: MIC) was 98.7 µM (≈ 31.3 µg/mL), the MIC (Mtb TC 12561; read-out: MIC) was 49.3 µM (≈ 15.6 µg/mL) and the MIC (Mtb TH 12768; read-out: MIC) was 197.3 µM (≈ 62.5 µg/mL).
`CS(=O)(=O)N1CCN(C2=C(Cl)C(=O)c3ccccc3C2=O)CC1` [Compound E1, 2-chloro-3-(4-methanesulfonylpiperazin-1-yl)-1,4-dihydronaphthalene-1,4-dione] was tested, and the “MIC90 shift (increase in potency) upon ThyX depletion” value [1] was no less than 4 fold.
